Where “and” joins values, the source holds several entries; their conditions need not be identical. Equal entries are not always repeated. After the bases stand the sugars from the 5' end (letter, count) and the backbone: PS all phosphorothioate, else s phosphorothioate and o phosphodiester by linkage. Methylation of C is not given here. e = 2'-O-(2-methoxyethyl) (MOE); k = constrained ethyl (cEt); d = 2'-deoxy (DNA)
Target: APOL1
Conditions: ASO

Sequence | target mRNA inhibition (A431, 0.0625 µM) | target mRNA inhibition (A431, 0.25 µM) | target mRNA inhibition (A431, 1 µM) | target mRNA inhibition (A431, 2 µM) [%] | also measured
AGGTTTGGATGGAAGG (sugars k4 d9 k3, PS) | 36% | 73% | 88% | – | –
AGTATTGCCAGCTAAG (sugars k2 d4 e4 k2 d4, PS) | – | – | – | 59 | –
AGTATTGCCAGCTAAG (sugars k3 d4 k3 e1 d5, PS) | – | – | – | 89 | –
AGTATTGTTTTTGTGG (sugars k2 d4 e3 k2 d5, PS) | – | – | – | 90 | –
AGTTTTGTAAGTGCAA (sugars k2 d4 e3 k2 d5, PS) | 49% | 79% | 93% | 94 | target mRNA inhibition (A431, 0.0156 µM): 10%
AGTTTTGTAAGTGCAA (sugars kkdddddkekeddddd, PS) | – | – | – | 92 | –
AGTTTTGTAAGTGCAA (sugars kkddddkekekddddd, PS) | – | – | – | 81 | –
ATATCAGATGGGTACT (sugars kkddddekekeddddd, PS) | – | – | – | 27 | –
ATCAGATGGGTACTTC (sugars kddddkekekeddddd, PS) | – | – | – | 43 | –
ATCAGATGGGTACTTC (sugars kkkddddkekekdddd, PS) | – | – | – | 54 | –
ATGCTAATTTTCTGAC (sugars kkddddekekeddddd, PS) | – | – | – | 95 | –
ATTCAGAATTTCCACT (sugars kkddddkekekddddd, PS) | – | – | – | 76 | –
ATTCAGAATTTCCACT (sugars kkddddkekekkdddd, PS) | – | – | – | 57 | –
ATTCAGAATTTCCACT (sugars kkkddddkekekdddd, PS) | – | – | – | 56 | –
ATTCCTGGGCAGTTCA (sugars k4 d9 k3, PS) | 37% | 43% | 58% | – | –
ATTCTATTAGAGGGCT (sugars k3 d4 k3 e1 d5, PS) | – | – | – | 85 | –
ATTCTATTAGAGGGCT (sugars k4 d9 k3, PS) | 54% and 53% and 55% | 82% and 76% and 86% | – | – | target mRNA inhibition (A431, 0.0156 µM): 31%
ATTCTATTAGAGGGCT (sugars kddddkekekeddddd, PS) | – | – | – | 34 | –
ATTCTATTAGAGGGCT (sugars kkdddddkekeddddd, PS) | – | – | – | 78 | –
ATTCTCATGGTACAGG (sugars kkdddddkekeddddd, PS) | 46% | 74% | 90% | 95 | target mRNA inhibition (A431, 0.0156 µM): 18%
ATTCTCATGGTACAGG (sugars kkddddkekekddddd, PS) | – | – | – | 76 | –

Sequence | target mRNA inhibition (A431, 0.0625 µM) | target mRNA inhibition (A431, 0.25 µM) | target mRNA inhibition (A431, 1 µM) | target mRNA inhibition (A431, 2 µM) [%] | also measured
ATTTCTTGATGTGGTG (sugars kddddkekekeddddd, PS) | – | – | – | 81 | –
CAACACATCATTGGGT (sugars k2 d4 e3 k2 d5, PS) | – | – | – | 80 | –
CAACACATCATTGGGT (sugars kkddddkekekddddd, PS) | – | – | – | 43 | –
CAACACATCATTGGGT (sugars kkkddddkekekdddd, PS) | – | – | – | 30 | –
CACAGCATTGAGTACA (sugars k4 d9 k3, PS) | 44% | 66% | 86% | – | –
CACATCATTGGGTTAT (sugars kkddddkekekddddd, PS) | – | – | – | 74 | –
CACTTTACATGCACGA (sugars kkdddddddddkekek, PS) | 38% | 69% | 89% | – | target mRNA inhibition (A431, 0.0156 µM): 21%
CAGATGGGTACTTCTG (sugars kdddddkekekddddd, PS) | – | – | – | 44 | –
CAGATGGGTACTTCTG (sugars kddddkekekeddddd, PS) | – | – | – | 23 | –
CAGATTCTGTGTGCTC (sugars k4 d9 k3, PS) | 51% | 68% | 75% | – | –
CAGTTTTGTAAGTGCA (sugars k2 d4 e3 k2 d5, PS) | – | – | – | 92 | –
CAGTTTTGTAAGTGCA (sugars k4 d9 k3, PS) | 96% | 98% | 99% | – | –
CAGTTTTGTAAGTGCA (sugars kddddkekekeddddd, PS) | – | – | – | 48 | –
CAGTTTTGTAAGTGCA (sugars kkkddddkdkdkdddd, PS) | – | – | 92% | 93 | target mRNA inhibition (A431, 0.04 µM): 57% and 50%
CAGTTTTGTAAGTGCA (sugars kkkddddkekekdddd, PS) | – | – | – | 87 | –
CATTCAGAATTTCCAC (sugars k4 d9 k3, PS) | 56% | 81% | 90% and 81% | – | target mRNA inhibition (A431, 0.04 µM): 15%
CATTCAGAATTTCCAC (sugars kkkddddkekeddddd, PS) | – | – | – | 86 | –
CCCTTTTGGCACCTTC (sugars k4 d9 k3, PS) | 52% and 73% | 81% and 88% | 94% and 93% | – | –
CCGTCAATATATTCTT (sugars k3 d4 k3 e1 d5, PS) | 70% | 92% | 96% | 98 | target mRNA inhibition (A431, 0.0156 µM): 36%
CCGTTCCAGGCCTCAT (sugars k4 d9 k3, PS) | 48% | 66% | 65% | – | –

Reference: the OligoGym collection
